Experimental data from patent US20210052473A1, “COMPOSITION FOR REMOVING ALDEHYDE-BASED ODORS AND REACTIVE OXYGEN SPECIES” (Osteon Co. Ltd., priority 2019, published 2021).

Assay: Deodorization performance: anisidine value (p-AV) by ultraviolet spectrometry after reaction with 0.2% 2-nonenal isooctane standard solution
Conditions: 20 ml 0.2% 2-nonenal isooctane solution (v/v) stirred 30 minutes with 20 ml composition; lower value = less aldehyde; Table 5
Description: At this time, 0.2% 2-nonenal isooctane solution (v/v) was used as a standard solution to determine the deodorizing performance. 2-Nonenal is a typical aldehyde compound generated by the oxidation of unsaturated fatty acids in human skin. […] The deodorizing performance of the deodorizing substances was determined by measuring the anisidine values (p-AV).

Structure (SMILES) | Anisidine value (p-AV)
O=S([O-])S(=O)(=O)[O-].[K+].[K+] [Comparative Example 5, Potassium metabisulfite] | 33.10
NCCCC[C@H](N)C(=O)O [Comparative Example 17, Lysine] | 34.56
Nc1ccnc(=O)[nH]1 [Comparative Example 13, Cytosine] | 37.21
O=S([O-])S(=O)[O-].[Na+].[Na+] [Comparative Example 8, Sodium hydrosulfite] | 34.39
Nc1nc2nc[nH]c2c(=O)[nH]1 [Comparative Example 16, Guanine] | 38.45
O=S([O-])S(=O)[O-].[K+].[K+] [Comparative Example 9, Potassium hydrosulfite] | 34.10
Nc1ncnc2nc[nH]c12 [Comparative Example 15, Adenine] | 36.23
O=S([O-])S(=O)(=O)[O-].[Na+].[Na+] [Comparative Example 4, Sodium metabisulfite] | 34.48
O=S([O-])O.[Li+] [Comparative Example 3, Lithium bisulfite] | 34.65
O=S([O-])S(=O)(=O)[O-].[Li+].[Li+] [Comparative Example 7, Lithium metabisulfite] | 34.27
O=S([O-])S(=O)[O-].[Li+].[Li+] [Comparative Example 10, Lithium hydrosulfite] | 33.98
O=S([O-])O.[Na+] [Comparative Example 1, Sodium bisulfite] | 33.28
N[C@@H](Cc1c[nH]cn1)C(=O)O [Comparative Example 19, Histidine] | 38.09
O=S([O-])S(=O)(=O)[O-].[Na+].[Na+] [Comparative Example 6, Sodium metabisulfite] | 35.36
O=S([O-])O.[K+] [Comparative Example 2, Potassium bisulfite] | 33.23
N=C(N)NCCC[C@H](N)C(=O)O [Comparative Example 18, Arginine] | 38.41
Cc1c[nH]c(=O)[nH]c1=O [Comparative Example 14, Thymine] | 36.54
